Tests used:
[1] = system: KRas-mediated phosphorylation of ERK in H727 cells; test: Inhibition of KRas-mediated phosphorylation of ERK (Cisbio HTRF pERK), H727 cells; format: cell-based; settings: Homo sapiens, NCI-H727, H727 cells; HTRF pERK
Summary of the method: (§1)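 Each compound was tested at 10 concentrations, threefold apart with 10 uM the highest, for 3 hrs on 6,000 seeded cells; final DMSO was 0.8% and Trametinib (0.2 uM) served as Min control. Lysed cells were analysed for pERK by HTRF.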

[2] = system: KRas-mediated phosphorylation of ERK in MKN1 cells; test: Inhibition of KRas-mediated phosphorylation of ERK (Cisbio HTRF pERK), MKN1 cells; format: cell-based; settings: Homo sapiens, MKN-1
Summary of the method: (§2)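 Phospho-ERK is quantified by HTRF with the Advanced pERK kit. Cells go in at 6,000/well in RPMI plus 10% FBS overnight at 37° C. under 5% CO2, with a 4-hour covered room-temperature incubation ahead of the read.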

[3] = system: KRas-mediated phosphorylation of ERK in PSN1 cells; test: Inhibition of KRas-mediated phosphorylation of ERK (Cisbio HTRF pERK), PSN1 cells; format: cell-based; settings: Homo sapiens
Summary of the method: as §2

[4] = system: KRas-mediated phosphorylation of ERK in A549 cells; test: Inhibition of KRas-mediated phosphorylation of ERK (Cisbio HTRF pERK), A549 cells; format: cell-based; settings: Homo sapiens, HTRF pERK
Summary of the method: (§3)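 A cell-based HTRF pERK assay: ten-point, threefold titrations beginning at 10 uM were applied for 3 hrs, with 0.2 uM Trametinib wells as the minimum control. Cells were lysed cold, and lysate was incubated with the antibody pair for 2 hrs before reading.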

[5] = molecular target: T1, KRas^G12D (Homo sapiens, UniProt P01116, G12D); test: KRas binding assay (TR-FRET tracer displacement), KRas G12D
T1 construct: Biotinylated KRas (corresponding to amino acids 1-169, produced at Accelegan Inc.); biotin (biotinylated); purchased Accelegan Inc
T1 sequence (P01116 1-169 isoform P01116-2 G12D): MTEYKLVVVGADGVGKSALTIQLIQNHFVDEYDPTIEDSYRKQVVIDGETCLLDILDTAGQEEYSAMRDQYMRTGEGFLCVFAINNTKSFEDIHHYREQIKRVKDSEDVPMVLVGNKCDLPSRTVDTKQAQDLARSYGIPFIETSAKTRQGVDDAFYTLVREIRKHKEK

[6] = molecular target: T2, KRas^G12R (Homo sapiens, UniProt P01116, G12R); test: KRas binding assay (TR-FRET tracer displacement), KRas G12R
T2 construct: Biotinylated KRas (corresponding to amino acids 1-169, produced at Accelegan Inc.); biotin (biotinylated); purchased Accelegan Inc
T2 sequence (P01116 1-169 isoform P01116-2 G12R): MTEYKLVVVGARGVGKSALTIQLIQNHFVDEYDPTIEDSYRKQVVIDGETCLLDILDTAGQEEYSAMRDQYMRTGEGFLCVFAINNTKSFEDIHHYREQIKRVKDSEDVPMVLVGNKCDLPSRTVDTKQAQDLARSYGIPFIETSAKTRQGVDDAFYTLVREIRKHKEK

[7] = system: KRas-mediated phosphorylation of ERK in H460 cells; test: Inhibition of KRas-mediated phosphorylation of ERK (Cisbio HTRF pERK), H460 cells; format: cell-based; settings: Homo sapiens, NCI-H460, HTRF pERK
Summary of the method: as §1

[8] = system: KRas-mediated phosphorylation of ERK in H358 cells; test: Inhibition of KRas-mediated phosphorylation of ERK (Cisbio HTRF pERK), H358 cells; format: cell-based; settings: Homo sapiens, NCI-H358, HTRF pERK
Summary of the method: as §1

[9] = system: KRas-mediated phosphorylation of ERK in AsPC-1 cells; test: Inhibition of KRas-mediated phosphorylation of ERK (Cisbio HTRF pERK), AsPC-1 cells; format: cell-based; settings: Homo sapiens, ASPC1, AsPC-1 cells; HTRF pERK
Summary of the method: as §1

[10] = system: KRas-mediated phosphorylation of ERK in HCT116 cells; test: Inhibition of KRas-mediated phosphorylation of ERK (Cisbio HTRF pERK), HCT116 cells; format: cell-based; settings: Homo sapiens, HCT-116, HTRF pERK
Summary of the method: as §3

[11] = molecular target: T3, KRas^G12V (Homo sapiens, UniProt P01116, G12V); test: KRas binding assay (TR-FRET tracer displacement), KRas G12V
T3 construct: Biotinylated KRas (corresponding to amino acids 1-169, produced at Accelegan Inc.); biotin (biotinylated); purchased Accelegan Inc
T3 sequence (P01116 1-169 isoform P01116-2 G12V): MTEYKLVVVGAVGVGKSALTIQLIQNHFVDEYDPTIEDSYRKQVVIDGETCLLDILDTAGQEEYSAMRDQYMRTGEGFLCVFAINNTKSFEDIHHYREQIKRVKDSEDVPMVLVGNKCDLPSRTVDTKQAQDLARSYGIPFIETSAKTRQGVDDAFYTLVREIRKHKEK

| Compound | IC50 [1] [nM] | IC50 [2] [nM] | IC50 [3] [nM] | IC50 [4] [nM] | IC50 [5] [nM] | IC50 [6] [nM] | IC50 [7] [nM] | IC50 [8] [nM] | IC50 [9] [nM] | IC50 [10] [nM] | IC50 [11] [nM] |
| --- | --- | --- | --- | --- | --- | --- | --- | --- | --- | --- | --- |
| CCc1c(F)ccc2cc(O)cc(-c3ncc4c(N5CC6CCC(C5)C6(O)C(F)(F)F)nc(OC[C@@]56CCCN5C[C@H](F)C6)nc4c3F)c12 (stereo partly drawn) [Example 843, (1R,5S,8R)-3-(7-(8-ethyl-7-fluoro-3-hydroxynaphthalen-1-yl)-8-fluoro-2-(((2R,7aS)-2-fluorotetrahydro-1H-pyrrolizin-7a(5H)-yl)methoxy)pyrido[4,3-d]pyrimidin-4-yl)-8-(trifluoromethyl)-3-azabicyclo[3.2.1]octan-8-ol] | 5300 | 55 | > 10000 | 2510 | 265 | 26 | 162 | 478 | 6230 | 305 | 79 |
| CCc1c(F)ccc2cc(O)cc(-c3ncc4c(N5CC6CCC(C5)C6CO)nc(OC[C@@]56CCCN5C[C@H](F)C6)nc4c3F)c12 (stereo partly drawn) [Example 845, 5-ethyl-6-fluoro-4-(8-fluoro-2-(((2R,7aS)-2-fluorotetrahydro-1H-pyrrolizin-7a(5H)-yl)methoxy)-4-((1R,5S,8S)-8-(hydroxymethyl)-3-azabicyclo[3.2.1]octan-3-yl)pyrido[4,3-d]pyrimidin-7-yl)naphthalen-2-ol] | 1150 | 64 | 3460 | 1190 | 41 | 11 | 80 | 241 | 1570 | 159 | 10 |
| CCc1c(F)ccc2cc(O)cc(-c3ncc4c(N5CC6CCC(C5)C6(C)O)nc(OC[C@@]56CCCN5C[C@H](F)C6)nc4c3F)c12 (stereo partly drawn) [Example 846, (1R,5S,8R)-3-(7-(8-ethyl-7-fluoro-3-hydroxynaphthalen-1-yl)-8-fluoro-2-(((2R,7aS)-2-fluorotetrahydro-1H-pyrrolizin-7a(5H)-yl)methoxy)pyrido[4,3-d]pyrimidin-4-yl)-8-methyl-3-azabicyclo[3.2.1]octan-8-ol] | 2850 | 102 | > 10000 | 2680 | 159 | 38 | 238 | 746 | 4470 | 572 | 28 |
| CCc1c(F)ccc2cc(O)cc(-c3ncc4c(N5CC6CCC(C5)C6CCO)nc(OC[C@@]56CCCN5C[C@H](F)C6)nc4c3F)c12 (stereo partly drawn) [Example 847, 5-ethyl-6-fluoro-4-(8-fluoro-2-(((2R,7aS)-2-fluorotetrahydro-1H-pyrrolizin-7a(5H)-yl)methoxy)-4-((1R,5S,8S)-8-(2-hydroxyethyl)-3-azabicyclo[3.2.1]octan-3-yl)pyrido[4,3-d]pyrimidin-7-yl)naphthalen-2-ol] | 1640 | 270 | > 10000 | 1820 | 140 | 39 | 582 | 494 | 4520 | 1430 | 20 |
| C=C1[C@@H]2CC[C@H]1CN(c1nc(OC[C@@]34CCCN3C[C@H](F)C4)nc3c(F)c(-c4cc(O)cc5ccc(F)c(CC)c45)ncc13)C2 [Example 849, 5-ethyl-6-fluoro-4-(8-fluoro-2-(((2R,7aS)-2-fluorotetrahydro-1H-pyrrolizin-7a(5H)-yl)methoxy)-4-((1R,5S)-8-methylene-3-azabicyclo[3.2.1]octan-3-yl)pyrido[4,3-d]pyrimidin-7-yl)naphthalen-2-ol] | 1000 | 189 | > 10000 | 1270 | 65 | 24 | 802 | 286 | 3090 | 1780 | 9 |

The next compounds have a lower IC50 [1] than those just listed; values first:

| IC50 [1] [nM] | IC50 [2] [nM] | IC50 [3] [nM] | IC50 [4] [nM] | IC50 [5] [nM] | IC50 [6] [nM] | IC50 [7] [nM] | IC50 [8] [nM] | IC50 [9] [nM] | IC50 [10] [nM] | IC50 [11] [nM] | Compound |
| --- | --- | --- | --- | --- | --- | --- | --- | --- | --- | --- | --- |
| 231 | 19 | 9790 | 69 | 24 | 4 | 32 | 22 | 386 | 119 | 6 | CCc1c(F)ccc2cc(O)cc(-c3ncc4c(N5CCOC[C@@]6(CCO6)C5)nc(OC[C@@]56CCCN5C[C@H](F)C6)nc4c3F)c12 [Example 836, 5-ethyl-6-fluoro-4-(8-fluoro-2-(((2R,7aS)-2-fluorotetrahydro-1H-pyrrolizin-7a(5H)-yl)methoxy)-4-((R)-1,6-dioxa-9-azaspiro[3.6]decan-9-yl)pyrido[4,3-d]pyrimidin-7-yl)naphthalen-2-ol] |
| 23 | 3 | 2990 | 11 | < 2 | < 2 | 14 | 6 | 4 | 45 | < 2 | CCc1c(F)ccc2cc(O)cc(-c3ncc4c(N5CCOC[C@]6(CCO6)C5)nc(OC[C@@]56CCCN5C[C@H](F)C6)nc4c3F)c12 [Example 837, 5-ethyl-6-fluoro-4-(8-fluoro-2-(((2R,7aS)-2-fluorotetrahydro-1H-pyrrolizin-7a(5H)-yl)methoxy)-4-((S)-1,6-dioxa-9-azaspiro[3.6]decan-9-yl)pyrido[4,3-d]pyrimidin-7-yl)naphthalen-2-ol] |
| 299 | 38 | > 10000 | 422 | 9 | 7 | 145 | 180 | 575 | 239 | 4 | CCc1c(F)ccc2cc(O)cc(-c3ncc4c(N5CC6CCC(COCCO)(C6)C5)nc(OC[C@@]56CCCN5C[C@H](F)C6)nc4c3F)c12 (stereo partly drawn) [Example 840, 5-ethyl-6-fluoro-4-(8-fluoro-2-(((2R,7aS)-2-fluorotetrahydro-1H-pyrrolizin-7a(5H)-yl)methoxy)-4-(1-((2-hydroxyethoxy)methyl)-3-azabicyclo[3.2.1]octan-3-yl)pyrido[4,3-d]pyrimidin-7-yl)naphthalen-2-ol] |
| 97 | 1 | > 10000 | 56 | 5 | < 2 | 20 | 9 | 479 | 41 | < 2 | CCc1c(F)ccc2cc(O)cc(-c3ncc4c(N5C[C@H]6CC[C@@H](C5)[C@@H]6O)nc(OC[C@@]56CCCN5C[C@H](F)C6)nc4c3F)c12 [Example 842, (1R,5S,8R)-3-(7-(8-ethyl-7-fluoro-3-hydroxynaphthalen-1-yl)-8-fluoro-2-(((2R,7aS)-2-fluorotetrahydro-1H-pyrrolizin-7a(5H)-yl)methoxy)pyrido[4,3-d]pyrimidin-4-yl)-3-azabicyclo[3.2.1]octan-8-ol] |
| 896 | 100 | > 10000 | 809 | 39 | 12 | 275 | 310 | 2060 | 496 | 9 | CCc1c(F)ccc2cc(O)cc(-c3ncc4c(N5C[C@H]6CC[C@@H](C5)[C@H]6O)nc(OC[C@@]56CCCN5C[C@H](F)C6)nc4c3F)c12 [Example 848, (1R,5S,8S)-3-(7-(8-ethyl-7-fluoro-3-hydroxynaphthalen-1-yl)-8-fluoro-2-(((2R,7aS)-2-fluorotetrahydro-1H-pyrrolizin-7a(5H)-yl)methoxy)pyrido[4,3-d]pyrimidin-4-yl)-3-azabicyclo[3.2.1]octan-8-ol] |

From patent US20260015350A1, “AZAQUINAZOLINE PAN-KRAS INHIBITORS” (Mirati Therapeutics, Inc., priority 2022, published 2026)
